Experimental data from patent US20240277663A1, “PHARMACEUTICAL KITS AND USES THEREOF FOR TREATING COLORECTAL CANCER” (priority 2023, published 2024).
Marks after values point to notes of the source that are not given here.

Columns and labels:
[1] = system: CT26 allograft tumor (MSS subtype colorectal carcinoma); test: CT26 subcutaneous tumor model, multiple doses of ABT-301 with or without RMP1-14; type: in vivo, mouse; conditions: for Tumor size: Day 27 after treatments, alone or + RMP1-14 200 μg, means ± SEM
Description: Treatments were administered for indicated period (27 days) or until humane endpoints. Ten mice were used in each group. […] RMP1-14 was prepared with PBS.

[2] = biological target: HDAC1 (Homo sapiens, UniProt Q13547); test: HDAC enzymatic activity assay (fluorogenic, Reaction Biology)
[3] = biological target: HDAC3 (Homo sapiens, UniProt O15379); test: as above
[4] = biological target: T1, HDAC8 (Homo sapiens, UniProt Q9BY41); test: as above
T1 sequence (Q9BY41 1-377): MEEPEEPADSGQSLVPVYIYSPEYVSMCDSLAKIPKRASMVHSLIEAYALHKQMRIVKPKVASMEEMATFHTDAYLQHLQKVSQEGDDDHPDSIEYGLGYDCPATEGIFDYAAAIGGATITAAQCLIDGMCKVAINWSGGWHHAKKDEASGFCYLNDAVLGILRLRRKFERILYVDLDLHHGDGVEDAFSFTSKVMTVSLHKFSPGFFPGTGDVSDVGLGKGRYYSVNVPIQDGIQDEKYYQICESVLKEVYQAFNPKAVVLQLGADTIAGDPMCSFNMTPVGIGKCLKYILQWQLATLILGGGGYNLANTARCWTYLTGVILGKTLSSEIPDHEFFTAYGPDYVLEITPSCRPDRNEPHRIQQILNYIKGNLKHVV

[5] = biological target: HDAC4 (Homo sapiens, UniProt P56524); test: as above
[6] = biological target: HDAC5 (Homo sapiens, UniProt Q9UQL6); test: as above
[7] = biological target: T2, HDAC6 (Homo sapiens, UniProt Q9UBN7); test: as above
T2 sequence (Q9UBN7 1-1215): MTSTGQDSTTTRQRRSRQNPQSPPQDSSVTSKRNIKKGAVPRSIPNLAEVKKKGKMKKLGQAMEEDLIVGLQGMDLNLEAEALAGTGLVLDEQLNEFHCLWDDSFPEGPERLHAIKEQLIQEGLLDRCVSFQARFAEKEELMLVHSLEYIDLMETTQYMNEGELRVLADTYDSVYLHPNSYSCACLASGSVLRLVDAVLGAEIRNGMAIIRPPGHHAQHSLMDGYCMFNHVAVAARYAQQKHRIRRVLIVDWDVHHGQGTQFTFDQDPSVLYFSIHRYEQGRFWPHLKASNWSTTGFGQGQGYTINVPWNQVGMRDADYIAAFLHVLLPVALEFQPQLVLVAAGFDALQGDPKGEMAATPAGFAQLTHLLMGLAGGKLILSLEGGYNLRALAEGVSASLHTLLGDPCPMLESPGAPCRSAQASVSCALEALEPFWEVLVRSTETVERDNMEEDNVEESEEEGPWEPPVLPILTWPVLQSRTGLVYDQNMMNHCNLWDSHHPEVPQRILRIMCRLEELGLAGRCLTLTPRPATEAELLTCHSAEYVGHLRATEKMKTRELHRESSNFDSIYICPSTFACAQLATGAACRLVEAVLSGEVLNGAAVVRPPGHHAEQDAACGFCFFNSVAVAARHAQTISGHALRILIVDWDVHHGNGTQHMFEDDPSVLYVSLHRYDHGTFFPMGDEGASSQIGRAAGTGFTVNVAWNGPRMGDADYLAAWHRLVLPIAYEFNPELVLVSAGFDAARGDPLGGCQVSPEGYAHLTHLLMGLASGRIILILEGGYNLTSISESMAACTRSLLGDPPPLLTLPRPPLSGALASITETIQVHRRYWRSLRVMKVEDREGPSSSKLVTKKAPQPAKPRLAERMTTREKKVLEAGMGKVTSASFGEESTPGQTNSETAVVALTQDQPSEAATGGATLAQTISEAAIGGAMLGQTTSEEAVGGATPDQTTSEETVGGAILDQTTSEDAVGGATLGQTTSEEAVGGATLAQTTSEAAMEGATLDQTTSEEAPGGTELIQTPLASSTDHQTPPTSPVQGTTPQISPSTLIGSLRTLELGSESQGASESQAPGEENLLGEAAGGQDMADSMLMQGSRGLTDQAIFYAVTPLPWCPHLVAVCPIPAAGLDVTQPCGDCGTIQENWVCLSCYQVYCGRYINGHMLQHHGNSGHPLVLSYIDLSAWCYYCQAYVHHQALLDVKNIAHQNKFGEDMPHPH

[8] = biological target: T3, HDAC10 (Homo sapiens, UniProt Q969S8); test: as above
T3 sequence (Q969S8 1-669): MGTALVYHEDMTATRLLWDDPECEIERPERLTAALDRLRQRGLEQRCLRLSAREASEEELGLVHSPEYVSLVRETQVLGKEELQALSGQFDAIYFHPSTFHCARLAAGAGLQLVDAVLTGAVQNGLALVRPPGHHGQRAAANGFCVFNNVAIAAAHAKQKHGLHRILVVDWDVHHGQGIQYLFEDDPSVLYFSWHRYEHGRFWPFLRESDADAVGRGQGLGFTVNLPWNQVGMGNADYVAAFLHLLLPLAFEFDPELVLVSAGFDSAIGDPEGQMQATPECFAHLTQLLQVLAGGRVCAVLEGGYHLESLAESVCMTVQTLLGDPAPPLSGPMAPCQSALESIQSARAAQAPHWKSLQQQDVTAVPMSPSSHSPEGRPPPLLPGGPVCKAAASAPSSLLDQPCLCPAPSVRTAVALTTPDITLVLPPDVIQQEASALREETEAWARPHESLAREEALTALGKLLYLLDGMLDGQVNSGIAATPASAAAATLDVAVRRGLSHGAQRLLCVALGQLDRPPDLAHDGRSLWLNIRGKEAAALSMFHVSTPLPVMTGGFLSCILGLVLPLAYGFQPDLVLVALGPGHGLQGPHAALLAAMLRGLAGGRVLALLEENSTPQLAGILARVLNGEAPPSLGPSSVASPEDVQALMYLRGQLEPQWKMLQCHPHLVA

[9] = ABT-301 25 mg/kg PO QD, alone or + RMP1-14 200 μg IP, n=10/group
[10] = ABT-301 100 mg/kg PO QD, alone or + RMP1-14 200 μg IP, n=10/group

HDAC4, sequence (P56524 whole entry): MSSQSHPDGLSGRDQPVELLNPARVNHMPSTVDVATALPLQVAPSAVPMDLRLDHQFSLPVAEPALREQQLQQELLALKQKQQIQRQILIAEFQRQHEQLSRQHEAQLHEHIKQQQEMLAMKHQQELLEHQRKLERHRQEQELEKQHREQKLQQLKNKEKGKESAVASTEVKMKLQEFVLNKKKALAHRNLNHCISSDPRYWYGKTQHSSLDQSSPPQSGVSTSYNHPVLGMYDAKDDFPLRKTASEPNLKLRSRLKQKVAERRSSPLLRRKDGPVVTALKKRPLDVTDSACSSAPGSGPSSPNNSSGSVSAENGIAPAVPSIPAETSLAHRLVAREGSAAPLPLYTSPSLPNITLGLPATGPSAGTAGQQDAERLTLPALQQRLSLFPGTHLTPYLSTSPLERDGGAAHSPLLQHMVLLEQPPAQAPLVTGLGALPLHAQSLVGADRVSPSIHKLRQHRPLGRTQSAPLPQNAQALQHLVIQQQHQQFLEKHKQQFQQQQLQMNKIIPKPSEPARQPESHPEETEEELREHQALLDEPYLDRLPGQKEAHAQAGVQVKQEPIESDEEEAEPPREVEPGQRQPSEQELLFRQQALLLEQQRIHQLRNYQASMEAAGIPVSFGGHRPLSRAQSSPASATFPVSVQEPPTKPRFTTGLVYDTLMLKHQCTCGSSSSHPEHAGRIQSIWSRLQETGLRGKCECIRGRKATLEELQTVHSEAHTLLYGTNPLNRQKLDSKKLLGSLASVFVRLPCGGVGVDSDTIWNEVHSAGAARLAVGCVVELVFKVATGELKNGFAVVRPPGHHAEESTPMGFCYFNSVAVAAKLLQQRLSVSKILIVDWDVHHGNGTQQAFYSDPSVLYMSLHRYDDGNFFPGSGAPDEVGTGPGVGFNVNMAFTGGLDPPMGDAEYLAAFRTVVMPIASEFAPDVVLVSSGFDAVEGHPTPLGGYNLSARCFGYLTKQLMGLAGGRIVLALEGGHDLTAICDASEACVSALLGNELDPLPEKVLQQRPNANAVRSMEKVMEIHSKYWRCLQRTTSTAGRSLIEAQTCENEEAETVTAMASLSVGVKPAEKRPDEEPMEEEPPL
HDAC3, sequence (O15379 whole entry): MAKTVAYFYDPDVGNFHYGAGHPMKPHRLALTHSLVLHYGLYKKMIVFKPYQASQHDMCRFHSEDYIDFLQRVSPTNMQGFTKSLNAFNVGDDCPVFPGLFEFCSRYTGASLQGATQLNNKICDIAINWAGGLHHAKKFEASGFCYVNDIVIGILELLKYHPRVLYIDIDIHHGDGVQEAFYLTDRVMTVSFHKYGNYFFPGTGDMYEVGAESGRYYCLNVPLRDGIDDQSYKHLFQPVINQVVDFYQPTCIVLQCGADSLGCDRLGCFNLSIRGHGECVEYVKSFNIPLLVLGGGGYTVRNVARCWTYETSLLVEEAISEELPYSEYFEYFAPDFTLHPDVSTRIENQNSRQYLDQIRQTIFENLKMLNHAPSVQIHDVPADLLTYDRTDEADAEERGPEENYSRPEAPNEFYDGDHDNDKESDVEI
HDAC3, sequence (Q9Y618 395-489 partner limits assumed): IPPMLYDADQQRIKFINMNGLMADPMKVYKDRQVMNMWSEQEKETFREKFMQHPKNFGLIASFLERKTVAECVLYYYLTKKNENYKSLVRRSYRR
HDAC1, sequence (Q13547 whole entry): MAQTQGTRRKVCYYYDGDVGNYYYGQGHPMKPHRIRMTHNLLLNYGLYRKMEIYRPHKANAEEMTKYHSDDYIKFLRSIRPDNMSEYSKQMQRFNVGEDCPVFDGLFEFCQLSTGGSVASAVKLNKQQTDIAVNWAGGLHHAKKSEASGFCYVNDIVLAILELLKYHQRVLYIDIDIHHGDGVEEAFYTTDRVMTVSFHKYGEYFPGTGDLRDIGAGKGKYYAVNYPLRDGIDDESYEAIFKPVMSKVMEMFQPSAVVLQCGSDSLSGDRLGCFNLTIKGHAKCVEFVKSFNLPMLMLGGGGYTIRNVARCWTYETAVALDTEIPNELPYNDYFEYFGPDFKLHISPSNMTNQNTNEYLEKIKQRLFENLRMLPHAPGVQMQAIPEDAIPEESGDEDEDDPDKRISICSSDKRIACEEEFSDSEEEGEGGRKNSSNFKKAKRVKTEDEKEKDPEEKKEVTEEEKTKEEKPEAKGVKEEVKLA
HDAC5, sequence (Q9UQL6 whole entry): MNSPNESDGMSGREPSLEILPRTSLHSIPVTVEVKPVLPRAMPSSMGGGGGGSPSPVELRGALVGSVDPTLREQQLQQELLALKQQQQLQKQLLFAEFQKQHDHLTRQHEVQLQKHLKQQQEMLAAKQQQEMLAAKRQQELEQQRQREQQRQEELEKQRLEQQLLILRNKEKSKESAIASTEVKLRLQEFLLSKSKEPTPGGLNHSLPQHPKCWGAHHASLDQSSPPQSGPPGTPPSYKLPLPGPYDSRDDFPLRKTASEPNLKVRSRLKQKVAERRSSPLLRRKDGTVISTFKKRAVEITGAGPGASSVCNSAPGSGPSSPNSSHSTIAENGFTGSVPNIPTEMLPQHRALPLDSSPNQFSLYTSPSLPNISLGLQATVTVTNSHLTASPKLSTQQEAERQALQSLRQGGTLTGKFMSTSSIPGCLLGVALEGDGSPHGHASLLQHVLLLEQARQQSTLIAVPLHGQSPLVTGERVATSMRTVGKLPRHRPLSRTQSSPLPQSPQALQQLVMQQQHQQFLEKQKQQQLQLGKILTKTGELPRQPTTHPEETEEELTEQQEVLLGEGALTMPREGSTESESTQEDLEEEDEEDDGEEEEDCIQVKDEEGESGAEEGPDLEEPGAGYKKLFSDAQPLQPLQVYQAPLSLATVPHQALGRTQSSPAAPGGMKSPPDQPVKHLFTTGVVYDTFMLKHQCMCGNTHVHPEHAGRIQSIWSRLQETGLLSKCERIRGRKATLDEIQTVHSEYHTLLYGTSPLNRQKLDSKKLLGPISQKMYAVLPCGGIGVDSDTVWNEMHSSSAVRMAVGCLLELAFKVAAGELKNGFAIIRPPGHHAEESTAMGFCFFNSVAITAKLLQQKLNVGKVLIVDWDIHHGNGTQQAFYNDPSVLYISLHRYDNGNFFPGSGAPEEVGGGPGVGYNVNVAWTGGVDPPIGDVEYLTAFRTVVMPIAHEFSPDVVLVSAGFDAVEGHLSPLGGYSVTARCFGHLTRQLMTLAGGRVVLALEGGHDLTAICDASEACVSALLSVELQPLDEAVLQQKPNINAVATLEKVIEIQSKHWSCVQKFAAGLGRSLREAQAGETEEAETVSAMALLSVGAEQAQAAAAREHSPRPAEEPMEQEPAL

Structure (SMILES): O=C(/C=C/c1ccc2c(c1)CCN2S(=O)(=O)c1ccccc1)NO [ABT-301, (E)-N-hydroxy-3-(1-(phenylsulfonyl)-indolin-5-yl)-acrylamide]
- number of mice exhibiting partial response (PR) [1, 9]: 1
- number of mice exhibiting progressive disease (PD) [1, 9]: 8
- number of mice exhibiting complete response (CR) [1, 10]: 2
- number of mice exhibiting partial response (PR) [1, 10]: 2
- number of mice exhibiting progressive disease (PD) [1, 10]: 7
- Tumor size ([1]; ABT-301 25 mg/kg): 806.83 ± 212.06* mm^3
- Tumor size ([1]; ABT-301 50 mg/kg): 580.33 ± 206.53** mm^3
- Tumor size ([1]; ABT-301 100 mg/kg): 234.59 ± 52.38** mm^3
- IC50 [2]: 30.2 nM
- IC50 [3]: 6.61 nM
- IC50 [4]: 956 nM
- IC50 [5]: > 3 µM
- IC50 [6]: > 3 µM
- IC50 [7]: 53.2 nM
- IC50 [8]: 59.7 nM
